Reference: PubChem BioAssay (NCI)
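The compound was tested at five concentrations on cells cultured in 96-well plates, with a 48-hour exposure period. GI50 is the concentration that inhibits growth by half. The concentration for full growth arrest is given as TGI.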

How the values were obtained:
Assay in all cases: DTP human tumour cell line panel, 48 h
786-0 renal = test system: 786-0 renal
A498 renal = test system: A498 renal
A549 NSCLC = test system: A549 NSCLC
ACHN renal = test system: ACHN renal
BT-549 breast = test system: BT-549 breast
CAKI-1 renal = test system: CAKI-1 renal
CCRF-CEM leukemia = test system: CCRF-CEM leukemia
COLO 205 colon = test system: COLO 205 colon
DU-145 prostate = test system: DU-145 prostate
EKVX NSCLC = test system: EKVX NSCLC
HCC-2998 colon = test system: HCC-2998 colon
HCT-116 colon = test system: HCT-116 colon
HCT-15 colon = test system: HCT-15 colon
HL-60(TB) leukemia = test system: HL-60(TB) leukemia
HOP-62 NSCLC = test system: HOP-62 NSCLC
HOP-92 NSCLC = test system: HOP-92 NSCLC
HS 578T breast = test system: HS 578T breast
HT29 colon = test system: HT29 colon
IGROV1 ovarian = test system: IGROV1 ovarian
K-562 leukemia = test system: K-562 leukemia
KM12 colon = test system: KM12 colon
LOX IMVI melanoma = test system: LOX IMVI melanoma
M14 melanoma = test system: M14 melanoma
MALME-3M melanoma = test system: MALME-3M melanoma
MCF7 breast = test system: MCF7 breast
MDA-MB-231 breast = test system: MDA-MB-231 breast
MDA-MB-435 = test system: MDA-MB-435
MOLT-4 leukemia = test system: MOLT-4 leukemia
NCI-H226 lung = test system: NCI-H226 lung
NCI-H460 lung = test system: NCI-H460 lung
NCI-H522 lung = test system: NCI-H522 lung
NCI/ADR-RES ovarian = test system: NCI/ADR-RES ovarian
OVCAR-3 ovarian = test system: OVCAR-3 ovarian
OVCAR-4 ovarian = test system: OVCAR-4 ovarian
OVCAR-5 ovarian = test system: OVCAR-5 ovarian
OVCAR-8 ovarian = test system: OVCAR-8 ovarian
PC-3 prostate = test system: PC-3 prostate
RPMI-8226 leukemia = test system: RPMI-8226 leukemia
RXF 393 renal = test system: RXF 393 renal
SF-268 CNS = test system: SF-268 CNS
SF-295 CNS = test system: SF-295 CNS
SF-539 CNS = test system: SF-539 CNS
SK-MEL-2 melanoma = test system: SK-MEL-2 melanoma
SK-MEL-28 melanoma = test system: SK-MEL-28 melanoma
SK-MEL-5 melanoma = test system: SK-MEL-5 melanoma
SK-OV-3 ovarian = test system: SK-OV-3 ovarian
SN12C renal = test system: SN12C renal
SNB-19 CNS = test system: SNB-19 CNS
SNB-75 CNS = test system: SNB-75 CNS
SR leukemia = test system: SR leukemia
SW-620 colon = test system: SW-620 colon
T-47D breast = test system: T-47D breast
TK-10 renal = test system: TK-10 renal
U251 CNS = test system: U251 CNS
UACC-257 melanoma = test system: UACC-257 melanoma
UACC-62 melanoma = test system: UACC-62 melanoma
UO-31 renal = test system: UO-31 renal

## C/C(=C(/c1ccc(O)cc1)c1ccc(OCCN(C)C)cc1)c1ccc(Cl)cc1
786-0 renal
  GI50: 14.8 µM
  TGI: 29.5 µM
A498 renal
  GI50: > 100 µM
  TGI: > 100 µM
A549 NSCLC
  GI50: 50.9 µM
  TGI: > 100 µM
ACHN renal
  GI50: 29.1 µM
  TGI: 89.4 µM
BT-549 breast
  GI50: 40.9 µM
  TGI: > 100 µM
CAKI-1 renal
  GI50: 15.8 µM
  TGI: 40.9 µM
CCRF-CEM leukemia
  GI50: 25 µM
  TGI: 77.7 µM
COLO 205 colon
  GI50: 17.6 µM
  TGI: 33.1 µM
DU-145 prostate
  GI50: 34.3 µM
  TGI: > 100 µM
EKVX NSCLC
  GI50: 34.4 µM
  TGI: > 100 µM
HCC-2998 colon
  GI50: 18.1 µM
  TGI: 35.1 µM
HCT-116 colon
  GI50: 14.8 µM
  TGI: 28.7 µM
HCT-15 colon
  GI50: 18 µM
  TGI: 37.7 µM
HL-60(TB) leukemia
  GI50: 17.9 µM
  TGI: 39.3 µM
HOP-62 NSCLC
  GI50: 18.2 µM
  TGI: 38.7 µM
HOP-92 NSCLC
  GI50: 22.3 µM
  TGI: 90.3 µM
HS 578T breast
  GI50: 20 µM
  TGI: 75.9 µM
HT29 colon
  GI50: 16 µM
  TGI: 31.9 µM
IGROV1 ovarian
  GI50: 31.6 µM
  TGI: > 100 µM
K-562 leukemia
  GI50: 19.6 µM
  TGI: 53.8 µM
KM12 colon
  GI50: 25.6 µM
  TGI: 72.6 µM
LOX IMVI melanoma
  GI50: 17.2 µM
  TGI: 32.1 µM
M14 melanoma
  GI50: 17.6 µM
  TGI: 35.3 µM
MALME-3M melanoma
  GI50: 16 µM
  TGI: 30.9 µM
MCF7 breast
  GI50: 1.69 µM
  TGI: 27.2 µM
MDA-MB-231 breast
  GI50: 20.7 µM
  TGI: 46.1 µM
MDA-MB-435
  GI50: 16.6 µM
  TGI: 31.4 µM
MOLT-4 leukemia
  GI50: 20 µM
  TGI: 52.5 µM
NCI-H226 lung
  GI50: 54.5 µM
  TGI: > 100 µM
NCI-H460 lung
  GI50: 17.5 µM
  TGI: 32.9 µM
NCI-H522 lung
  GI50: 17.4 µM
  TGI: 38 µM
NCI/ADR-RES ovarian
  GI50: 28.3 µM
  TGI: > 100 µM
OVCAR-3 ovarian
  GI50: 24 µM
  TGI: 69 µM
OVCAR-4 ovarian
  GI50: 35.4 µM
  TGI: > 100 µM
OVCAR-5 ovarian
  GI50: 33.7 µM
  TGI: > 100 µM
OVCAR-8 ovarian
  GI50: 31 µM
  TGI: > 100 µM
PC-3 prostate
  GI50: 23.7 µM
  TGI: 74.8 µM
RPMI-8226 leukemia
  GI50: 20.8 µM
  TGI: 54.5 µM
RXF 393 renal
  GI50: 13.8 µM
  TGI: 28.1 µM
SF-268 CNS
  GI50: 36.3 µM
  TGI: > 100 µM
SF-295 CNS
  GI50: 21 µM
  TGI: 42.1 µM
SF-539 CNS
  GI50: 16.1 µM
  TGI: 30.1 µM
SK-MEL-2 melanoma
  GI50: 25.6 µM
  TGI: 84.2 µM
SK-MEL-28 melanoma
  GI50: 16.7 µM
  TGI: 31.5 µM
SK-MEL-5 melanoma
  GI50: 17.8 µM
  TGI: 33.5 µM
SK-OV-3 ovarian
  GI50: 48.7 µM
  TGI: > 100 µM
SN12C renal
  GI50: 32.5 µM
  TGI: > 100 µM
SNB-19 CNS
  GI50: 21.4 µM
  TGI: 51.1 µM
SNB-75 CNS
  GI50: 19.9 µM
  TGI: > 100 µM
SR leukemia
  GI50: 18.8 µM
  TGI: 47.9 µM
SW-620 colon
  GI50: 16.2 µM
  TGI: 31.7 µM
T-47D breast
  GI50: 12.2 µM
  TGI: 59.5 µM
TK-10 renal
  GI50: 79.7 µM
  TGI: > 100 µM
U251 CNS
  GI50: 16.5 µM
  TGI: 31.9 µM
UACC-257 melanoma
  GI50: 16.9 µM
  TGI: 32.7 µM
UACC-62 melanoma
  GI50: 18.5 µM
  TGI: 36.5 µM
UO-31 renal
  GI50: 13.5 µM
  TGI: 28.8 µM

## C#C[C@]1(O)CC[C@H]2[C@@H]3CC=C4c5sc(Nc6ccc(Cl)cn6)nc5CC[C@]4(C)[C@H]3CC[C@@]21C
786-0 renal
  GI50: 1.56 µM
  TGI: 3.42 µM
A498 renal
  GI50: 2.15 µM
  TGI: 4.75 µM
A549 NSCLC
  GI50: 6.4 µM
  TGI: > 100 µM
ACHN renal
  GI50: 5.07 µM
  TGI: > 100 µM
BT-549 breast
  GI50: 2.88 µM
  TGI: 25.2 µM
CAKI-1 renal
  GI50: 3.48 µM
  TGI: > 100 µM
CCRF-CEM leukemia
  GI50: 0.0721 µM
  TGI: > 100 µM
COLO 205 colon
  GI50: 23.5 µM
  TGI: > 100 µM
DU-145 prostate
  GI50: > 100 µM
  TGI: > 100 µM
EKVX NSCLC
  GI50: 3.51 µM
  TGI: > 100 µM
HCC-2998 colon
  GI50: 66.8 µM
  TGI: > 100 µM
HCT-116 colon
  GI50: 3.47 µM
  TGI: > 100 µM
HCT-15 colon
  GI50: 3.03 µM
  TGI: > 100 µM
HL-60(TB) leukemia
  GI50: 3.5 µM
  TGI: > 100 µM
HOP-62 NSCLC
  GI50: 3.31 µM
  TGI: > 100 µM
HOP-92 NSCLC
  GI50: 3.45 µM
  TGI: 73.4 µM
HS 578T breast
  GI50: 2.17 µM
  TGI: 6.53 µM
HT29 colon
  GI50: 6.83 µM
  TGI: > 100 µM
IGROV1 ovarian
  GI50: 9.14 µM
  TGI: > 100 µM
K-562 leukemia
  GI50: 3.34 µM
  TGI: > 100 µM
KM12 colon
  GI50: 4.04 µM
  TGI: > 100 µM
LOX IMVI melanoma
  GI50: 2.1 µM
  TGI: 4.33 µM
M14 melanoma
  GI50: 3.12 µM
  TGI: > 100 µM
MALME-3M melanoma
  GI50: 8.97 µM
  TGI: > 100 µM
MCF7 breast
  GI50: 1.8 µM
  TGI: 4.47 µM
MDA-MB-231 breast
  GI50: 3.34 µM
  TGI: > 100 µM
MDA-MB-435
  GI50: 3.73 µM
  TGI: > 100 µM
MOLT-4 leukemia
  GI50: 2.79 µM
  TGI: > 100 µM
NCI-H226 lung
  GI50: 7.41 µM
  TGI: > 100 µM
NCI-H460 lung
  GI50: 3.95 µM
  TGI: > 100 µM
NCI-H522 lung
  GI50: 10.5 µM
  TGI: > 100 µM
NCI/ADR-RES ovarian
  GI50: 15.9 µM
  TGI: > 100 µM
OVCAR-3 ovarian
  GI50: 7.66 µM
  TGI: > 100 µM
OVCAR-4 ovarian
  GI50: 7.73 µM
  TGI: > 100 µM
OVCAR-5 ovarian
  GI50: 24.1 µM
  TGI: > 100 µM
OVCAR-8 ovarian
  GI50: 6.32 µM
  TGI: > 100 µM
PC-3 prostate
  GI50: 1.68 µM
  TGI: 6.91 µM
RPMI-8226 leukemia
  GI50: 1.03 µM
  TGI: 4.18 µM
RXF 393 renal
  GI50: 0.642 µM
  TGI: 2.25 µM
SF-268 CNS
  GI50: 4.35 µM
  TGI: > 100 µM
SF-295 CNS
  GI50: 1.82 µM
  TGI: 3.75 µM
SF-539 CNS
  GI50: 1.62 µM
  TGI: 4.03 µM
SK-MEL-2 melanoma
  GI50: 3.83 µM
  TGI: > 100 µM
SK-MEL-28 melanoma
  GI50: 1.72 µM
  TGI: 3.68 µM
SK-MEL-5 melanoma
  GI50: 79.5 µM
  TGI: > 100 µM
SK-OV-3 ovarian
  GI50: 3.44 µM
  TGI: 13.4 µM
SN12C renal
  GI50: > 100 µM
  TGI: > 100 µM
SNB-19 CNS
  GI50: 4.95 µM
  TGI: > 100 µM
SNB-75 CNS
  GI50: 4.07 µM
  TGI: > 100 µM
SR leukemia
  GI50: 3.08 µM
  TGI: > 100 µM
SW-620 colon
  GI50: 4.77 µM
  TGI: > 100 µM
T-47D breast
  GI50: 61.2 µM
  TGI: > 100 µM
TK-10 renal
  GI50: > 100 µM
  TGI: > 100 µM
U251 CNS
  GI50: 2.66 µM
  TGI: > 100 µM
UACC-257 melanoma
  GI50: 2.49 µM
  TGI: 6.65 µM
UACC-62 melanoma
  GI50: 3.23 µM
  TGI: > 100 µM
UO-31 renal
  GI50: 2.96 µM
  TGI: > 100 µM
